Patent US12545639B2, “3-substituted phenylamidine compounds, preparation and use thereof” (PI INDUSTRIES LTD., priority 2019, dated 2026)

How the values were obtained:
[1] = tested on: Colletotrichum capsici; test: Colletotrichum capsici (anthracnose) in vitro test, radial growth on potato dextrose agar; type: cell-based; conditions: Colletotrichum truncatum, 168 h; 300 ppm in potato dextrose agar; 25° C., 60% relative humidity, seven days; read-out: control compared to the untreated check (radial growth)
[2] = tested on: Alternaria solani; test: Alternaria solani (early blight of tomato/potato) in vitro test, radial growth on potato dextrose agar; type: cell-based; conditions: 168 h, 300 ppm in potato dextrose agar, 25° C., 60% relative humidity, seven days, read-out: control compared to the untreated check (radial growth)
[3] = tested on: Rhizoctonia solani; test: Rhizoctonia solani (rice sheath blight/potato black scurf) in vitro test, radial growth on potato dextrose agar; type: cell-based; conditions: 168 h, 300 ppm in potato dextrose agar, 25° C., 60% relative humidity, seven days, read-out: control compared to the untreated check (radial growth)
[4] = tested on: Pyricularia oryzae; test: microbe, parasite or virus in culture; type: cell-based; conditions: 168 h, read-out: control compared to the untreated check (radial growth)
[5] = tested on: Botrytis cinerea; test: Botrytis cinerea (gray mold) in vitro test, radial growth on potato dextrose agar; type: cell-based; conditions: 168 h, 300 ppm in potato dextrose agar, 22° C., 90% relative humidity, seven days, read-out: control compared to the untreated check (radial growth)
[6] = tested on: Septoria lycopersici/Corynespora cassicola (CORYCA); test: Septoria lycopersici/Corynespora cassicola (CORYCA) (leaf spot of tomato) in vitro test, radial growth on potato dextrose agar; type: cell-based; conditions: 168 h, 300 ppm in potato dextrose agar, 25° C., 70% relative humidity, seven days, read-out: control compared to the untreated check (radial growth)
[7] = tested on: Phakopsora pachyrhizi; test: Phakopsora pachyrhizi test in soybean, preventive, in vivo on plants; conditions: in Glycine max, read-out: Efficacy (% control), disease severity compared to the untreated check

CCN(C)C=Nc1cc(F)cc(Nc2ccccc2F)c1C [Compound 19, N-ethyl-N′-(5-fluoro-3-((2-fluorophenyl)amino)-2-methylphenyl)-N-methylformimidamide]
≥ 70%: inhibition of growth at 300 ppm [1] | inhibition of growth at 300 ppm [2] | inhibition of growth at 300 ppm [3] | inhibition of growth at 300 ppm [4] | inhibition of growth at 300 ppm [5] | inhibition of growth at 300 ppm [6]

CCN(C)C=Nc1cc(C)cc(Nc2ccccc2C)c1Cl [Compound 24, N′-(2-chloro-5-methyl-3-(o-tolylamino)phenyl)-N-ethyl-N-methylformimidamide]
≥ 70%: inhibition of growth at 300 ppm [1] | inhibition of growth at 300 ppm [2] | inhibition of growth at 300 ppm [3] | inhibition of growth at 300 ppm [4] | inhibition of growth at 300 ppm [5] | inhibition of growth at 300 ppm [6]

CCN(C)C=Nc1cc(C)cc(Nc2ccccc2F)c1Cl [Compound 23, N′-(2-chloro-3-((2-fluorophenyl)amino)-5-methylphenyl)-N-ethyl-N-methylformimidamide]
≥ 70%: pest or weed control at 500 ppm [7] | inhibition of growth at 300 ppm [1] | inhibition of growth at 300 ppm [2] | inhibition of growth at 300 ppm [3] | inhibition of growth at 300 ppm [4] | inhibition of growth at 300 ppm [6]

CCN(C)C=Nc1cc(C)cc(N(C)c2ncc(Cl)cc2C)c1Cl [Compound 118, N′-(2-chloro-3-((5-chloro-3-methylpyridin-2-yl)(methyl)amino)-5-methylphenyl)-N-ethyl-N-methylformimidamide]
≥ 70%: inhibition of growth at 300 ppm [1] | inhibition of growth at 300 ppm [2] | inhibition of growth at 300 ppm [4] | inhibition of growth at 300 ppm [5] | inhibition of growth at 300 ppm [6]

CCN(C)C=Nc1cc(C)cc(Cc2ccccc2F)c1C [Compound 219, N-ethyl-N′-(3-(2-fluorobenzyl)-2,5-dimethylphenyl)-N-methylformimidamide]
≥ 70%: pest or weed control at 500 ppm [7] | inhibition of growth at 300 ppm [1] | inhibition of growth at 300 ppm [2] | inhibition of growth at 300 ppm [3] | inhibition of growth at 300 ppm [4] | inhibition of growth at 300 ppm [6]

CCN(C)C=Nc1cc(Cl)cc(Cc2ccc(Cl)c(F)c2)c1C [Compound 131, N′-(5-chloro-3-(4-chloro-3-fluorobenzyl)-2-methylphenyl)-N-ethyl-N-methylformimidamide]
≥ 70%: pest or weed control at 500 ppm [7] | inhibition of growth at 300 ppm [1] | inhibition of growth at 300 ppm [2] | inhibition of growth at 300 ppm [3] | inhibition of growth at 300 ppm [4] | inhibition of growth at 300 ppm [6]

CCN(C)C=Nc1cc(C)cc(Cc2ccccc2C)c1Br [Compound 209, N′-(2-bromo-5-methyl-3-(2-methylbenzyl)phenyl)-N-ethyl-N-methylformimidamide]
≥ 70%: pest or weed control at 500 ppm [7] | inhibition of growth at 300 ppm [1] | inhibition of growth at 300 ppm [2] | inhibition of growth at 300 ppm [3] | inhibition of growth at 300 ppm [6]

CCN(C)C=Nc1cc(C)cc(Cc2cccc(F)c2)c1Br [Compound 189, N′-(2-bromo-3-(3-fluorobenzyl)-5-methylphenyl)-N-ethyl-N-methylformimidamide]
≥ 70%: pest or weed control at 500 ppm [7] | inhibition of growth at 300 ppm [1] | inhibition of growth at 300 ppm [2] | inhibition of growth at 300 ppm [3] | inhibition of growth at 300 ppm [4] | inhibition of growth at 300 ppm [6]

CCN(C)C=Nc1cc(F)cc(N(C)c2ccccc2)c1C [Compound 11, N-ethyl-N′-(5-fluoro-2-methyl-3-(methyl(phenyl)amino)phenyl)-N-methylformimidamide]
≥ 70%: inhibition of growth at 300 ppm [1] | inhibition of growth at 300 ppm [2] | inhibition of growth at 300 ppm [3] | inhibition of growth at 300 ppm [5] | inhibition of growth at 300 ppm [6]

CCN(C)C=Nc1cc(F)cc(Nc2cc(C)ccc2Cl)c1C [Compound 113, N′-(3-((2-chloro-5-methylphenyl)amino)-5-fluoro-2-methylphenyl)-N-ethyl-N-methylformimidamide]
≥ 70%: pest or weed control at 500 ppm [7] | inhibition of growth at 300 ppm [1] | inhibition of growth at 300 ppm [2] | inhibition of growth at 300 ppm [3] | inhibition of growth at 300 ppm [4] | inhibition of growth at 300 ppm [6]
